Reference: patent publication US11760751B2, “Benzo 2-azaspiro[4.4]nonane compound and use thereof” (HELIOEAST PHARMACEUTICAL CO., LTD., priority 2020, dated 2023)

What was measured:
[1] = Pharmacokinetic evaluation in SD rats at different oral doses; type: in vivo, Sprague Dawley rats; conditions: male, Sprague-Dawley, rat, plasma, po, 5 mg/kg, single oral administration 5 mg/kg
Experimental: Test Embodiment 5: Pharmacokinetic Evaluation of Compounds in Rats at Different Doses
Experimental objective: to test the pharmacokinetics of the compounds in SD rats at different doses
Sprague Dawley rats (male, 200-300 g, 7-9 weeks old, Shanghai SLAC)
A standard protocol was used to test the pharmacokinetic characteristics of the compounds in SD rats after oral administration. In the experiment, the candidate compound was prepared into a clear solution, and administrated to rats by single oral administration. The vehicle for compound 1 was DMSO: 10% hydroxypropyl β-cyclodextrin aqueous solution=5:95. The vehicle for compounds 1A and 1B was 0.5% carboxymethyl cellulose +0.2% Tween 80. Whole blood samples of compounds 1, 1A and 1B within 48 hours were collected, centrifuged at 3000 g for 15 minutes, and the supernatant was separated to obtain plasma samples. 4-fold volume of acetonitrile solution containing internal standard was added thereto to precipitate protein. The mixture was centrifuged, and the supernatant was taken, and an equal volume of water was added thereto. Then the mixture was centrifuged and the supernatant was taken for injection. The blood drug concentration was quantitatively analyzed by LC-MS/MS analysis method, and pharmacokinetic parameters, such as peak concentration, peak time, half-life, area under the drug-time curve, were calculated.

S1PR1 = target: T1, S1PR1 (Homo sapiens, UniProt P21453); assay: In vitro S1PR1 agonistic activity, U2OS-EDG1 cells, LiveBLAzer-FRET B/G (CCF4-AM); type: cell-based
T1 construct: expressed in transfected cells
Experimental: Test Embodiment 2: In Vitro Evaluation of the Agonistic Activity of the Compounds of the Present Disclosure on S1PR1
Experimental objective: to detect the agonistic activity of compounds on S1PR1
I. Cell Treatment • 1. The cells U2OS-EDG1 (batch number: Invitrogen-K1520) were taken out from a liquid nitrogen tank and quickly thawed in a 37° C. water bath; • 2. the cell suspension was aspirated into a 15 mL centrifuge tube, resuspended in 5 mL of pre-warmed culture medium, and centrifuged at 1000 rpm for 5 min; • 3. the supernatant was discarded, 10 mL of culture medium was resuspended, transferred to a T75 culture flask, and cultured in a 37° C., 5% CO2 incubator.
II. Agonist Assay • 1. Compounds were diluted to working concentrations, and the compounds were 3-fold diluted by Echo 555 (manufacturer: Labcyte) to 10 concentrations, and then 200 nL of each concentration were transferred to cell plates, and centrifuged at 1000 rpm for 15 seconds; • 2. the culture medium in the culture flask was aspirated, and 4 mL of Dulbecco's Phosphate Buffered Saline (DPBS, supplier: Coring, catalog number: 21-031-CVR, batch number: 03318006) was added thereto to wash off the residual serum, and 2 mL of trypsin was added thereto, and incubated in a 37° C. incubator for 2 minutes to digest the cells, and then 10 mL of seed plate culture medium was added to resuspend the cells, and 0.6 mL of the cell suspension was taken out for counting; • 3. the cell density was adjusted with the seed plate culture medium to 1.88E+05 cells/mL, 40 μL was seeded per well (7500\well), and 40 μL of FreeStyle™ Expression culture medium was added around the cell plate, left to stand for 15 minutes at room temperature, and incubated at 37° C. with 5% CO2 for 20 hours.
III. Signal Detection • 1. LiveBLAzer™-FRET B/G Substrate (CCF4-AM) detection reagent was configured according to the instructions; • 2. 8 μL of 6×Substrate Mixture was added to each well of the cell plate, centrifuged at 1000 rpm for 15 seconds, attached with a membrane, incubated at 23° C. for 2 hours, and detected by Envision […].
IV. Data Analysis • 1. The original data was converted into % Effect by using the equation, and the value of EC50 could be obtained by curve fitting with four parameters [obtained in the “log(agonist) vs. response—Variable slope” mode in GraphPad Prism]; • 2. calculation formula: Ratio=(460 nm−blank)/(535 nm−blank) % Effect=(SampleRatio−Ave LCRatio)/(Ave HCRatio−Ave LCRatio)*100%

T1 sequence (P21453 whole entry): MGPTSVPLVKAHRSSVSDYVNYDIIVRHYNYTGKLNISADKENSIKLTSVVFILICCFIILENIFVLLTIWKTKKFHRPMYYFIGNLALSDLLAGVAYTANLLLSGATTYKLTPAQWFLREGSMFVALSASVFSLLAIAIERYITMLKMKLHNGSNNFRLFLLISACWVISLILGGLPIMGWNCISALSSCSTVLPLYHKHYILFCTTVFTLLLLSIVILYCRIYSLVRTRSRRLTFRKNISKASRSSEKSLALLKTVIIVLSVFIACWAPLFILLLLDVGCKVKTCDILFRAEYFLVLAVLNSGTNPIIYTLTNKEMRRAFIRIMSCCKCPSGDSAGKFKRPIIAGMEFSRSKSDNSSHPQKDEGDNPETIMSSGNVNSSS

AUC(0-t) ([1]; read-out: Area under the drug-time curve AUC0-last PO): 33 µM·h
half-life ([1]; read-out: Half-life T1/2 (PO) (converted)): 6.7 h
Cmax ([1]; read-out: Peak concentration Cmax): 2940 nM
Tmax ([1]; read-out: Peak time Tmax): 3 h
EC50 (S1PR1; 20 hours incubation): 0.32 nM
Emax (S1PR1; % Effect): nM, 74.0%
Structure (SMILES): CC(C)Oc1ccc(-c2nc(-c3cccc4c3CCC43CCN(CC4(C(=O)O)CC4)C3)no2)cc1C#N (single isomer, unassigned) [Compound 22B]
